This is an account of results in patent US8822430B2 (Gilead Sciences, Inc., priority 2009, dated 2014).

pEC50: −log10 of the molar value.

As usually defined, the pEC50 is −log10 of the EC50, conventionally taken in molar units.

The subject of this assay is HCV 1b RLuc cells (dicistronic genotype 1b Con1 replicon). Briefly: Renilla luciferase (RLuc)-based HCV replicon reporter assay. In kind it is cell-based, HCV genotype 1b. To be noted: Hepatitis C virus, 72 h, HCV 1b RLuc replicon, 72 hours; read-out: Activity (antiviral potency [EC50]). The method, boiled down:
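EC50 values were calculated by non-linear regression of Renilla luciferase signal from lysed cells after 72 h of compound exposure. Cells harboured a genotype 1b Con1 dicistronic replicon encoding RLuc. Compounds were serially diluted in DMSO from 10 mM stocks into culture media.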
A general note: In antiviral work, replicon cells carry a viral genome segment that copies itself.

Regarding `COC(=O)N[C@H](C(=O)N1CCC[C@H]1c1ncc(-c2ccc(-c3ccc(-c4cnc(CN5CC(=O)N[C@@H](C(C)C)C5=O)[nH]4)cc3)cc2)[nH]1)C(C)C`, the pEC50 is 9.29.

As for `COC(=O)N[C@@H](C)C(=O)N1CCC[C@H]1c1ncc(-c2ccc3c(c2)CCc2cc(-c4cnc([C@@H]5[C@H]6CC[C@H](C6)N5C(=O)[C@H](C)NC(=O)OC)[nH]4)ccc2-3)[nH]1`, the pEC50 was 10.43.

Take `COC(=O)N[C@H](C(=O)N1CCC[C@H]1c1ncc(-c2ccc3cc4cc(-c5cnc([C@@H]6CCCN6C(=O)[C@@H](NC(=O)OC)C(C)C)[nH]5)ccc4cc3c2)[nH]1)C(C)C`: the pEC50 was 11.15. The same measure for `COC(=O)N[C@H](C(=O)N1CCC[C@H]1c1ncc(-c2ccc3cc(-c4ccc(-c5cnc([C@@H]6CCCN6C(=O)[C@@H](Cc6ccccc6)NC(=O)OC)[nH]5)cc4)ccc3c2)[nH]1)C(C)C`: 9.07; for `COC(=O)N[C@H](C(=O)N1CCC[C@H]1c1nc(-c2cccc(Oc3ccc(-c4cnc([C@@H]5CCCN5C(=O)[C@@H](NC(=O)OC)C(C)C)[nH]4)cc3)c2)c[nH]1)C(C)C`: 10.27; for `COC(=O)N[C@H](C(=O)N1CCC[C@H]1c1ncc(-c2ccc(-c3ccc4cc(-c5cnc([C@@H]6CCCN6C(=O)[C@@H](NC(=O)OC)C6CCOCC6)[nH]5)ccc4c3)cc2)[nH]1)C1CCOCC1`: 10.16.

As to `COC(=O)N[C@H](C(=O)N1CC2(CC2)C[C@H]1c1ncc(-c2ccc(-c3ccc4cc(-c5cnc([C@@H]6[C@H]7CC[C@H](C7)N6C(=O)[C@@H](NC(=O)OC)C(C)(C)OC)[nH]5)ccc4c3)cc2)[nH]1)C(C)C`, the pEC50 is 10.81. The result for `COC(=O)N[C@H](C(=O)N1CCC[C@H]1c1ncc(-c2ccc(-c3ccc4cc(-c5cnc([C@@H]6C[C@H](C#N)CN6C(=O)[C@H](NC(=O)OC)c6ccccc6)[nH]5)ccc4c3)cc2)[nH]1)C(C)C` reads 11.01; that for `COC(=O)N[C@H](C(=O)N1CCC[C@H]1c1nc2ccc(C#CC#Cc3ccc4nc([C@@H]5CCCN5C(=O)[C@@H](NC(=O)OC)C(C)C)[nH]c4c3)cc2[nH]1)C(C)C`, 10.58. The result for `COC(=O)N[C@H](C(=O)N1CCC[C@H]1c1ncc(-c2ccc3c(c2)CCc2cc(-c4cnc([C@@H]5CCCN5C(=O)[C@@H](NC(=O)OC)C(C)C)[nH]4)ccc2-3)[nH]1)C(C)C` reads 11.00. The result for `COC(=O)N[C@H](C(=O)N1CCC[C@H]1c1ncc(-c2ccc(-c3ccc(-c4cnc(CN5CCC[C@@H](NC(=O)OC(C)(C)C)C5=O)[nH]4)cc3)cc2)[nH]1)C(C)C` reads 10.46.

Take `COC(=O)N[C@H](C(=O)N1CCC[C@H]1c1ncc(-c2ccc(/C=C/c3ccc(-c4cnc([C@@H]5CCCN5C(=O)[C@@H](NC(=O)OC)C(C)C)[nH]4)cc3)cc2)[nH]1)C(C)C`: the pEC50 is 10.58. Turning to `COC(=O)N[C@H](C(=O)N1OC2(CCC2)C[C@H]1c1ncc(-c2ccc(-c3ccc(-c4cnc([C@@H]5CC6(CCC6)ON5C(=O)[C@@H](NC(=O)OC)C(C)C)[nH]4)cc3)cc2)[nH]1)C(C)C`, the pEC50 was 11.27.

For the compound `COC(=O)N[C@@H](C)C(=O)N1[C@@H]2CC[C@@H](C2)[C@H]1c1ncc(-c2ccc3cc(-c4ccc(-c5cnc([C@@H]6CCCN6C(=O)[C@@H](NC(=O)OC)C(C)C)[nH]5)cc4)ccc3c2)[nH]1`, the pEC50 was 10.80. Turning to `COC(=O)N[C@H](C(=O)N1CCC[C@H]1c1ncc(-c2ccc(C#Cc3ccc(-c4cnc([C@@H]5CN(S(=O)(=O)N(C)C)CCN5C(=O)[C@@H](NC(=O)OC)C(C)C)[nH]4)cc3)cc2)[nH]1)C(C)C`, the pEC50 is 10.28. The same measure for `COC(=O)N[C@H](C(=O)N1CCC[C@H]1c1ncc(-c2ccc(-c3ccc(-c4cnc([C@@H]5CCCN5C(=O)[C@@H](NC(=O)OC)C(C)C)[nH]4)s3)cc2)[nH]1)C(C)C`: 11.09; for `COC(=O)N[C@H](C(=O)N1CCC[C@H]1c1ncc(-c2ccc(C#Cc3ccc(-c4cnc([C@@H]5CCCN5C(=O)[C@@H](NC(=O)OC)C(C)C)[nH]4)cc3)cc2)[nH]1)C(C)C`: 10.90; for `COC(=O)N[C@H](C(=O)NC1(c2ncc(-c3ccc(-c4ccc(-c5cnc([C@@H]6CCCN6C(=O)[C@@H](NC(=O)OC)C(C)C)[nH]5)cc4)cc3)[nH]2)CCC1)C(C)C`: 10.74. For `COC(=O)N[C@H](C(=O)N1CCC[C@H]1c1ncc(-c2ccc3c(c2)C(F)(F)c2cc(-c4ccc5nc([C@@H]6[C@H]7CC[C@H](C7)N6C(=O)[C@@H](NC(=O)OC)C(C)C)[nH]c5c4)ccc2-3)[nH]1)C(C)C`, the pEC50 is 11.54.

On to `COC(=O)N[C@H](C(=O)N1CCC[C@H]1c1ncc(-c2ccc(-c3cccc4c(-c5cnc([C@@H]6CCCN6C(=O)[C@@H](NC(=O)OC)C(C)C)[nH]5)cccc34)cc2)[nH]1)C(C)C`, for which the pEC50 is 11.49.

For `COC(=O)N[C@H](C(=O)N1CCC[C@H]1c1ncc(-c2ccc(-c3ccc(-c4cnc([C@@H]5CCCN5C(=O)[C@@H](NC(=O)OC)C(C)C)[nH]4)cc3C#N)cc2)[nH]1)C(C)C`, the pEC50 was 10.80. The same measure for `CC[C@H](NC(=O)OC)C(=O)N1CC2(CC2)C[C@H]1c1ncc(-c2ccc3cc(-c4ccc(-c5cnc([C@@H]6[C@H]7CC[C@H](C7)N6C(=O)[C@@H](NC(=O)OC)C(C)C)[nH]5)cc4)ccc3c2)[nH]1`: 10.74; for `COC(=O)N[C@H](C(=O)N1CCC[C@H]1c1ncc(-c2ccc(-c3ccc(-c4ccc5nc([C@@H]6CCCN6C(=O)[C@@H](NC(=O)OC)C(C)C)[nH]c5c4)cc3)cc2)[nH]1)C(C)C`: 11.27; for `COC(=O)N[C@H](C(=O)N1[C@@H]2CC[C@@H](C2)[C@H]1c1ncc(-c2ccc(-c3ccc4cc(-c5cnc([C@@H]6CC7(CC7)CN6C(=O)[C@H](NC(=O)OC)c6ccccc6)[nH]5)ccc4c3)cc2)[nH]1)C(C)C`: 10.40. The result for `COC(=O)N[C@H](C(=O)N1CCC[C@H]1c1ncc(-c2ccc(Oc3ccc(-c4cnc([C@@H]5CCCN5C(=O)[C@@H](NC(=O)OC)C(C)C)[nH]4)cc3)cc2)[nH]1)C(C)C` reads below 7.67; that for `COC(=O)N[C@H](C(=O)N1CC2(CC2)C[C@H]1c1ncc(-c2ccc3c(c2)oc2cc(-c4ccc5nc([C@@H]6[C@H]7CC[C@H](C7)N6C(=O)[C@@H](NC(=O)OC)C(C)C)[nH]c5c4)ccc23)[nH]1)C(C)C`, 11.39; that for `COCCO[C@H]1C[C@@H](c2ncc(-c3ccc(-c4ccc5cc(-c6cnc([C@@H]7CC8(CC8)CN7C(=O)[C@@H](NC(=O)OC)C(C)C)[nH]6)ccc5c4)cc3)[nH]2)N(C(=O)[C@@H](NC(=O)OC)C(C)C)C1`, 10.84. For `COC(=O)N[C@@H](CCS(C)(=O)=O)C(=O)N1CC2(CC2)C[C@H]1c1ncc(-c2ccc(-c3ccc4cc(-c5cnc([C@@H]6C[C@H](C#N)CN6C(=O)[C@@H](NC(=O)OC)C(C)C)[nH]5)ccc4c3)cc2)[nH]1`, the pEC50 was 10.39. As to `COC(=O)N[C@H](C(=O)N1CC2(CC2)C[C@H]1c1ncc(-c2ccc3cc(-c4ccc(-c5cnc([C@@H]6[C@H]7CC[C@H](C7)N6C(=O)[C@@H](NC(=O)OC)C(C)(C)C)[nH]5)cc4)ccc3c2)[nH]1)C(C)C`, the pEC50 was 11.05.

With `COC(=O)NC(C(=O)N1CCC[C@H]1c1ncc(-c2cc3sc(-c4ccc(-c5cnc([C@@H]6CCCN6C(=O)[C@@H](NC(=O)OC)C(C)C)[nH]5)cc4)cc3s2)[nH]1)C(C)C` (stereo partly drawn), the pEC50 was 10.89. With `COC(=O)N[C@H](C(=O)N1CCC[C@H]1c1ncc(-c2ccc3cc(-c4ccc(-c5cnc([C@@H]6CCCN6C(=O)[C@@H](NC(=O)OC)C6CCOCC6)[nH]5)cc4)ccc3c2)[nH]1)C(C)C`, the pEC50 was 10.88. Take `CNC(=O)O[C@H](C(=O)N1CCC[C@H]1c1ncc(-c2ccc(C#Cc3ccc(-c4cnc([C@@H]5CCCN5C(=O)[C@@H](NC(=O)OC)C(C)C)[nH]4)cc3)cc2)[nH]1)C(C)C`: the pEC50 was 9.90. The result for `COC(=O)N[C@H](C(=O)N1CCC[C@H]1C(=O)Nc1ccc(-c2ccc(-c3cnc([C@@H]4CCCN4C(=O)[C@@H](NC(=O)OC)C(C)C)[nH]3)cc2)cc1)C(C)C` reads 9.91; that for `COC(=O)N[C@H](C(=O)N1CCC[C@H]1c1ncc(-c2ccc3cc(-c4ccc(-c5cnc([C@@H]6C[C@H](CNS(C)(=O)=O)CN6C(=O)[C@@H](NC(=O)OC)C(C)C)[nH]5)cc4)ccc3c2)[nH]1)C(C)C`, 9.92. Consider `COC(=O)N[C@H](C(=O)N1CCC[C@H]1c1ncc(-c2ccc(C#Cc3ccc(-c4cnc([C@@H]5[C@H]6CC[C@H](C6)N5C(=O)[C@@H](NC(=O)OC)C(C)C)[nH]4)cc3)cc2)[nH]1)C(C)C`, for which the negative-log EC50 (pEC50) is 10.14. The same measure for `COC(=O)N[C@H](C(=O)N1CCC[C@H]1c1ncc(-c2ccc3cc(-c4ccc(-c5cnc(-c6cccn6S(=O)(=O)c6ccccc6)[nH]5)cc4)ccc3c2)[nH]1)C(C)C`: 7.62; for `COC(=O)N[C@H](C(=O)N1CCC[C@H]1c1ncc(-c2cc3cc4sc(-c5cnc([C@@H]6CCCN6C(=O)[C@@H](NC(=O)OC)C(C)C)[nH]5)cc4cc3s2)[nH]1)C(C)C`: 11.11; for `COC(=O)N[C@H](C(=O)N1CCC[C@H]1c1ncc(-c2ccc3c(c2)C(=O)c2cc(-c4cnc([C@@H]5CCCN5C(=O)[C@@H](NC(=O)OC)C(C)C)[nH]4)ccc2-3)[nH]1)C(C)C`: 10.74. The result for `COC(=O)N[C@H](C(=O)N1CCC[C@H]1c1ncc(-c2cc3c(OC)c4sc(-c5cnc([C@@H]6CCCN6C(=O)[C@@H](NC(=O)OC)C6CCOCC6)[nH]5)cc4c(OC)c3s2)[nH]1)C1CCOCC1` reads 9.38; that for `COC(=O)N[C@H](C(=O)N1CCC[C@H]1c1ncc(-c2ccc(-c3ccn(-c4cnc([C@@H]5CCCN5C(=O)[C@@H](NC(=O)OC)C(C)C)[nH]4)c(=O)c3)cc2)[nH]1)C(C)C`, 7.80; that for `CNC(=O)N1CCN(C(=O)[C@@H](NC(=O)OC)C(C)C)[C@H](c2ncc(-c3ccc(C#Cc4ccc(-c5cnc([C@@H]6CCCN6C(=O)[C@@H](NC(=O)OC)C(C)C)[nH]5)cc4)cc3)[nH]2)C1`, 8.98. Take `COC(=O)N[C@@H](C)C(=O)N1CCN(C(=O)OC)C[C@H]1c1ncc(-c2ccc(-c3ccc(-c4cnc([C@@H]5CCCN5C(=O)[C@@H](NC(=O)OC)C(C)C)[nH]4)cc3)cc2)[nH]1`: the pEC50 is 9.65.
